Like-named read-outs stand apart in the source and are kept apart here.
Legend:
[1] = system: L. mexicana promastigotes; test: MTT viability assay against L. mexicana promastigotes; assay type: cell-based, Leishmania mexicana; conditions: for IC50: 48 h; for L. mexicana Promastigote SI vs. Macrophage: CC50 RAW macrophages/IC50 L. mexicana; for L. mexicana Promastigote SI vs. Hepatocytes: CC50 HepG2 hepatocytes/IC50 L. mexicana
Protocol: The leishmanicidal activity against promastigotes from L. mexicana was evaluated by measuring parasites’ mitochondrial activity using the MTT (Thiazolyl Blue Tetrazolium Bromide) colorimetric assay as described previously. […] The medium was renewed every third day and subcultures were prepared when parasite density reached 1 × 10^7 parasites/mL. A Neubauer chamber was used to determine parasite density.

[2] = MTT cytotoxicity assay, murine macrophages; assay type: cell-based; conditions: mouse, RAW 264.7 macrophage cells, RAW 264.7, 48 h
Protocol: (§1) Murine macrophages (cell line RAW 264.7, ATCC® TIB-71™) were grown in Dulbecco’s Modified Eagle Medium (DMEM) (Gibco, Invitrogen, Waltham, MA, USA) supplemented with 10% fetal bovine serum (FBS) (Eurobio) and 100 IU/mL penicillin + 100 µg/mL streptomycin (Gibco), at 37 °C, in an atmosphere containing 5% CO2. Human hepatocyte cell line HepG2 (ATCC® HB-8065™) was grown in MEM (Gibco, Invitrogen) supplemented with 10% FBS (Gibco, Invitrogen), 1% NEAA (Gibco, Invitrogen), and 1% L-glutamine (Gibco, Invitrogen). The medium was renewed twice a week. For both cell lines, the viability was determined using the MTT assay as described before for leishmanicidal activity assessment, with some variations. Here, 5 × 10^4 cells/well in a final volume of 100 µL were seeded into a 96-well plate, in triplicate for RAW macrophages and in duplicate for HepG2. Saponin (2.4 mg/mL) and untreated cells were used as positive control and negative control, respectively. Compounds were dissolved in DMSO to obtain different serial concentrations (1.56 to 800 µM) for RAW macrophages and 100–0.001 µM for HepG2. The final concentration of DMSO in each well was 0.5%. After exposure to compounds for 48 h and 72 h for RAW and HepG2 cells, respectively, 10 µL/well of MTT (5 mg/mL in PBS) was added, incubated at 37 °C for 2 h in darkness, and cells were pelleted via centrifugation at 4400 rpm for 10 min. The medium was removed, and 100 µL/well of DMSO was added to dissolve formazan. The absorbance at 570 and 630 nm was recorded following the same procedure as with parasites.

[3] = system: bloodstream form of T. b. brucei (strain 427); test: Bioluminescence viability assay against bloodstream T. b. brucei expressing luciferase; conditions: for activity at 10 µM / inhibition at 10 µM / IC50: 24 h; for activity at 10 µM: read-out: T. brucei bloodstream % Growth (10 µM), 10 µM, 24 h; for inhibition at 10 µM: read-out: T. brucei growth inhibition at 10 µM; for anti-T. brucei activity in preliminary screening, in words: 10 µM; for T. brucei SI vs. Hepatocytes: CC50 HepG2 hepatocytes/IC50 T. brucei; for T. brucei bloodstream SI vs. Macrophages: CC50 RAW macrophages/IC50 T. brucei
[4] = MTT cytotoxicity assay, HepG2; assay type: cell-based; conditions: human, HepG2 cells, HepG2, 72 h, read-out: CC50 HepG2 Hepatocytes
Protocol: as §1

[5] = Leishmania mexicana, read-out: L. mexicana Promastigote IC50, promastigotes, 48 h, MTT
[6] = read-out: L. mexicana Promastigote IC50, promastigotes, MTT
[7] = Trypanosoma brucei, read-out: T. brucei bloodstream IC50, 24 h, bioluminescence

SMILES | IC50 [1, 5] [µM] | CC50 at 48 h [2] [µM] | melting point | L. mexicana Promastigote SI vs. Macrophage [1] | activity at 10 µM ([3]; Trypanosoma brucei) [%] | inhibition at 10 µM ([3]; Trypanosoma brucei) [%] | CC50 at 72 h [4] [µM] | L. mexicana Promastigote SI vs. Hepatocytes [1] | IC50 [1, 6] [µM] | anti-T. brucei activity in preliminary screening, in words [3] | T. brucei SI vs. Hepatocytes [3] | T. brucei bloodstream SI vs. Macrophages [3] | IC50 [3, 7] [µM] | SI against T. brucei, range over both mammalian cell lines ([3]; murine macrophages and HepG2 hepatocytes) | IC50 ([3]; read-out: T. brucei bloodstream IC50, bioluminescence) [µM] | CC50 at 48 h ([2]; positive control) [µg/mL]
C[C@@H]1[C@H](O)[C@@H](C)/C=C/C=C/C=C/C=C/C=C/C=C/C=C/[C@H](O[C@@H]2O[C@H](C)[C@@H](O)[C@H](N)[C@@H]2O)C[C@@H]2O[C@](O)(C[C@@H](O)C[C@@H](O)[C@H](O)CC[C@@H](O)C[C@@H](O)CC(=O)O[C@H]1C)C[C@H](O)[C@H]2C(=O)O [Amphotericin B, reference compound] | 0.17 ± 0.05 | > 5 | – | – | – | – | – | – | – | – | – | – | – | – | – | –
Cc1nn(-c2ccccc2)c(O)c1C(c1ccccc1O)c1c(C)nn(-c2ccccc2)c1O [Compound 2a] | 12 ± 3 | 51 ± 6 | 219.5 to 220.6 °C | 4.3 | 77 ± 5 | 23 | > 100 | – | – | – | – | – | – | – | – | –
Cc1nn(-c2ccccc2)c(O)c1C(c1ccccc1)c1c(C)nn(-c2ccccc2)c1O [Compound 2b] | 32 ± 7 | 206 ± 28 | 159.5 to 161.1 °C | 6.4 | 74 ± 7 | – | > 100 | >3.1 | – | – | – | – | – | – | – | –
Cc1nn(-c2ccccc2)c(O)c1C(c1ccccc1[N+](=O)[O-])c1c(C)nn(-c2ccccc2)c1O [Compound 2c] | 17 ± 8 | 53 ± 6 | 210 to 211 °C | 3.1 | 68 ± 5 | – | 26 ± 16 | 1.5 | – | – | – | – | – | – | – | –
Cc1nn(-c2ccccc2)c(O)c1C(c1cccc([N+](=O)[O-])c1)c1c(C)nn(-c2ccccc2)c1O [Compound 2d] | ≤ 10 | 75 ± 15 | – | 7.5 | 73 ± 4 | – | > 100 | >10 | 10 ± 3 | – | – | – | – | – | – | –
COc1ccc(C(c2c(C)nn(-c3ccccc3)c2O)c2c(C)nn(-c3ccccc3)c2O)cc1 [Compound 2e] | > 50 | – | 176 to 177 °C | – | > 100 | – | – | – | – | inactive | – | – | – | – | – | –
COc1ccccc1C(c1c(C)nn(-c2ccccc2)c1O)c1c(C)nn(-c2ccccc2)c1O [Compound 2f] | 22 ± 9 | 93 ± 7 | – | 4.2 | ≤ 50 | – | > 100 | >4.5 | – | – | >12.5 | 11.6 | 8 ± 0.27 | 11.6–18 | – | –
Cc1nn(-c2ccccc2)c(O)c1C(c1ccc(N(C)C)cc1)c1c(C)nn(-c2ccccc2)c1O [Compound 2g] | > 50 | – | 188.8 to 189.6 °C | – | > 100 | – | – | – | – | inactive | – | – | – | – | – | –
Cc1nn(-c2ccccc2)c(O)c1C(c1cc(O)ccc1[N+](=O)[O-])c1c(C)nn(-c2ccccc2)c1O [Compound 2h] | 21 ± 4 | 108 ± 22 | 205 to 207 °C (dec.) | 5.1 | 89 ± 3 | – | > 100 | >4.8 | – | – | – | – | – | – | – | –
COc1cccc(C(c2c(C)nn(-c3ccccc3)c2O)c2c(C)nn(-c3ccccc3)c2O)c1 [Compound 2i] | 10 ± 3 | 232 ± 25 | 205.7 to 207.1 °C | 23.2 | > 100 | – | > 100 | >10 | – | inactive | – | – | – | – | – | –
COc1ccc(C(c2c(C)nn(-c3ccccc3)c2O)c2c(C)nn(-c3ccccc3)c2O)cc1O [Compound 2j] | 10 ± 4 | 113 ± 15 | 200 to 202 °C | 11.3 | > 100 | – | > 100 | >10 | – | inactive | – | – | – | – | – | –
Cc1nn(-c2ccccc2)c(O)c1C(c1ccc([N+](=O)[O-])cc1)c1c(C)nn(-c2ccccc2)c1O [Compound 2k] | ≤ 10 | 117 ± 15 | – | 13 | 88 ± 4 | – | 15 ± 6 | 1.7 | 9 ± 1 | – | – | – | – | – | – | –
Cc1nn(-c2ccccc2)c(O)c1C(c1cccc(O)c1)c1c(C)nn(-c2ccccc2)c1O [Compound 2l] | 18 ± 5 | 108 ± 33 | 165 to 167 °C | 6 | > 100 | 0 | > 100 | >5.6 | – | inactive | – | – | – | – | – | –
COc1cc(C(c2c(C)nn(-c3ccccc3)c2O)c2c(C)nn(-c3ccccc3)c2O)cc(OC)c1O [Compound 2m] | 23 ± 5 | 286 ± 51 | 208 to 209.5 °C | 12.4 | > 100 | – | > 100 | >4.3 | – | inactive | – | – | – | – | – | –
Cc1nn(-c2ccccc2)c(O)c1C(c1ccc(O)cc1)c1c(C)nn(-c2ccccc2)c1O [Compound 2o] | > 50 | – | 217.2 to 218.9 °C | – | > 100 | 0 | – | – | – | inactive | – | – | – | – | – | –
COC(=O)c1ccc(C(c2c(C)nn(-c3ccccc3)c2O)c2c(C)nn(-c3ccccc3)c2O)cc1 [Compound 2q] | 13 ± 3 | 111 ± 2 | – | 8.5 | ≤ 50 | – | 29 ± 4 | 2.2 | – | – | 4.9 | 19 | 6 | – | 5.9 ± 0.6 | –
CC1(C)[C@@H](O[C@@H]2OC[C@H](O[C@@H]3OC[C@@H](O)[C@H](O)[C@H]3O)[C@H](O[C@H]3O[C@H](CO)[C@@H](O)[C@H](O)[C@H]3O)[C@H]2O[C@@H]2O[C@H](CO)[C@@H](O)[C@H](O)[C@H]2O[C@H]2O[C@H](CO)[C@@H](O)[C@H](O)[C@H]2O)CC[C@]2(C)[C@H]3CCC45OCC6(CC[C@@](C)(C=O)C[C@@H]64)[C@H](O)C[C@@]5(C)[C@]3(C)CC[C@@H]12 (stereo partly drawn) [Saponin, reference compound] | – | – | – | – | – | – | – | – | – | – | – | – | – | – | – | 160 ± 30

Source: paper PMC9405596, “Evaluation of the Anti-Leishmania mexicana and -Trypanosoma brucei Activity and Mode of Action of 4,4′-(Arylmethylene)bis(3-methyl-1-phenyl-1H-pyrazol-5-ol)” (Biomedicines, 2022)
